Series [1] has as its target T1, Vitamin D3 receptor (Bos taurus) (UniProt Q28037).
T1 sequence (whole entry): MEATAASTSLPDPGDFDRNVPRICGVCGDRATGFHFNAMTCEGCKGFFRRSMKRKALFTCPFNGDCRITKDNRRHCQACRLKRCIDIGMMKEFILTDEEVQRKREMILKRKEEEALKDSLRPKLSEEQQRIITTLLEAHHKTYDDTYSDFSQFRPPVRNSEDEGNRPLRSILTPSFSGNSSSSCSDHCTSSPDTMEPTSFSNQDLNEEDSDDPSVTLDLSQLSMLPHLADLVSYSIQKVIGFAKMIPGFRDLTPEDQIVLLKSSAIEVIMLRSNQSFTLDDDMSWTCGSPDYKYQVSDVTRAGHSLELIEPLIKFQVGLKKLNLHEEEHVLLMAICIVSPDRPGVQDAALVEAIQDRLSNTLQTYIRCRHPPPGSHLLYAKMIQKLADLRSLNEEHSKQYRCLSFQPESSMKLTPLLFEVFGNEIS
Nature of the series: Displacement of [3H]1-alpha,25-dihydroxyvitamin D3 from calf thymus VDR by liquid scintillation counting.

Series [2] addresses T2, 1,25-dihydroxyvitamin D(3) 24-hydroxylase, mitochondrial (Homo sapiens, UniProt Q07973).
T2 sequence (Q07973 whole entry): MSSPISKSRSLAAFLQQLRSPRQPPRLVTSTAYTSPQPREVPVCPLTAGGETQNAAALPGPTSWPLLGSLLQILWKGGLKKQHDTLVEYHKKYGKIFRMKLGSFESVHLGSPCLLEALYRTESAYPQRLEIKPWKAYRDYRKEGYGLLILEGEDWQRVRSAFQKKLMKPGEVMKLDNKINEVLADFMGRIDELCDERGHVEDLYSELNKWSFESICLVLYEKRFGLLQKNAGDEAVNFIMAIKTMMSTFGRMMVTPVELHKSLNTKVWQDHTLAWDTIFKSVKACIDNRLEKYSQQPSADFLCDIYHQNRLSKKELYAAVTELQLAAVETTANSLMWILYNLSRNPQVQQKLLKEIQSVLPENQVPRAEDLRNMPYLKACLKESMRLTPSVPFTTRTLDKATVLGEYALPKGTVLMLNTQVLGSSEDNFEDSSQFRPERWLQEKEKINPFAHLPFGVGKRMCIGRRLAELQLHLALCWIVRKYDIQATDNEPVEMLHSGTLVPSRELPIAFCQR
Nature of the series: Binding affinity to human CYP24A1 expressed in Escherichia coli assessed as catalytic efficiency after 60 mins relative 1-alpha,25-dihydroxyvitamin D3. The note with it: 1 h.

The target of series [3] is T1, Vitamin D3 receptor (Bos taurus). Nature of the series: Binding affinity to bovine thymus VDR relative to 1-alpha,25-dihydroxyvitamin D3.
In series [4] the target is T3, Vitamin D-binding protein (Homo sapiens) (UniProt P02774).
T3 sequence (whole entry): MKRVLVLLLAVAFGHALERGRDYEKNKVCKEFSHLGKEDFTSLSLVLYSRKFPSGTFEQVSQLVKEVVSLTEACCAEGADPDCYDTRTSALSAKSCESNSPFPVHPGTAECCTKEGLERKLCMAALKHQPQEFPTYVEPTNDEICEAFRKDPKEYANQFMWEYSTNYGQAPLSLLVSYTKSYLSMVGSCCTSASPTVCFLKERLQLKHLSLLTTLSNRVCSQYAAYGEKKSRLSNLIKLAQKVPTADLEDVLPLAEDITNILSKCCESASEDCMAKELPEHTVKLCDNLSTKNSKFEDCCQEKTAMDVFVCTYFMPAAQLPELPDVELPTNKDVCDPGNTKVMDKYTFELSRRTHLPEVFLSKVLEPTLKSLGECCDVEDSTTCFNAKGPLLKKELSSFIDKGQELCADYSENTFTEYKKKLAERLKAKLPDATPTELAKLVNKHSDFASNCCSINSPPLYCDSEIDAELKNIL
As to the kind of experiment: Binding affinity to vitamin D-binding protein relative to 1-alpha,25-dihydroxyvitamin D3.

The structures appear in SMILES notation.

With `C=C1/C(=C\C=C2/CCC[C@]3(C)[C@@H]([C@H](C)CCCC(C)(C)O)CC[C@@H]23)C[C@H](O)[C@@H](OCCCO)[C@H]1O`, the results for the Activity in series [1], in series [2] and in series [3] were 180%, 2% and 180%, respectively.

As to `C=C1/C(=C\C=C2/CCC[C@]3(C)[C@@H]([C@H](C)CCCC(C)(C)O)CC[C@@H]23)C[C@H](O)[C@H](OCCCO)[C@H]1O`, the Activity in series [4] came to 2; in series [3] it was 13%.

Turning to `C=C1/C(=C\C=C2/CCC[C@]3(C)[C@@H]([C@H](C)CCCC(C)(C)O)CC[C@@H]23)C[C@H](O)[C@@H](OCCC)[C@H]1O`, the Activity in series [3] came to 64%.

For the origin of these results see ChEMBL document CHEMBL1152966, “Synthesis of 2alpha-propoxy-1alpha,25-dihydroxyvitamin D3 and comparison of its metabolism by human CYP24A1 and rat CYP24A1” (Bioorg Med Chem, 2009).
